From ChEMBL document CHEMBL4229434, “Design, synthesis, and evaluation of novel l-phenylglycine derivatives as potential PPARγ lead compounds” (Bioorg Med Chem, 2018)
pEC50: −log10 of the molar value. “And” between values parts separate entries of the source, which are not always exact repeats. Identical values can stand only once.

What was measured:
[1] = target: T1, Peroxisome proliferator-activated receptor gamma (Homo sapiens) (UniProt P37231); assay: Agonist activity at PPARgamma in human HepG2 cells assessed as activation of PPRE at 10 ug/ml incubated for 24 hrs by dual luciferase reporter gene assay relative to control; assay type: cell-based
T1 sequence (whole entry): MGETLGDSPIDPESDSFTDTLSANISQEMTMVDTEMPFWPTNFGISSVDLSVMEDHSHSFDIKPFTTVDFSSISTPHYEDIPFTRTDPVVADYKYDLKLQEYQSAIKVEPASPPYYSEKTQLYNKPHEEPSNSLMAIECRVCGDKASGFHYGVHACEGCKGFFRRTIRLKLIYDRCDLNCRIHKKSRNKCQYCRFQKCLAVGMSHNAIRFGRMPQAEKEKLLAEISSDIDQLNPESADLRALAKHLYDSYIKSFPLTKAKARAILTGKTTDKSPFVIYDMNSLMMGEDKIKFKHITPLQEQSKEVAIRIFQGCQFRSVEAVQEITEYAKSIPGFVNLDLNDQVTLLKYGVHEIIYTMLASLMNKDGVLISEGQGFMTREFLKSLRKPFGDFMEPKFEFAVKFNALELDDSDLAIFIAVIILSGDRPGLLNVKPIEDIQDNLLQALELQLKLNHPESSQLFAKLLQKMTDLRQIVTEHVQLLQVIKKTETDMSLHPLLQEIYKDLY

[2] = target: T1, Peroxisome proliferator-activated receptor gamma (Homo sapiens); assay: Agonist activity at PPARgamma in human HepG2 cells assessed as activation of PPRE at 10 ug/ml incubated for 24 hrs by dual luciferase reporter gene assay relative to pioglitazone; assay type: cell-based
Rattus norvegicus [3] = species: Rattus norvegicus; assay: Inhibition of rat small intestine alpha-glucosidase at 10 ug/ml using maltose/glucose as substrate incubated for 10 mins followed by substrate addition measured after 10 mins relative to control
[4] = target: Dipeptidyl peptidase 4 (Homo sapiens) (UniProt P27487); assay: Inhibition of recombinant human C-terminal His-tagged DPP-4 (29 to 766 residues) expressed in Sf9 insect cells at 10 ug/ml using dipeptidyl peptidase […] as substrate incubated for 10 mins followed by substrate addition measured after 40 mins by fluorescence assay relative to control
Sequence of Dipeptidyl peptidase 4 (Homo sapiens) (P27487 whole entry, looked up, the tested form may be a part): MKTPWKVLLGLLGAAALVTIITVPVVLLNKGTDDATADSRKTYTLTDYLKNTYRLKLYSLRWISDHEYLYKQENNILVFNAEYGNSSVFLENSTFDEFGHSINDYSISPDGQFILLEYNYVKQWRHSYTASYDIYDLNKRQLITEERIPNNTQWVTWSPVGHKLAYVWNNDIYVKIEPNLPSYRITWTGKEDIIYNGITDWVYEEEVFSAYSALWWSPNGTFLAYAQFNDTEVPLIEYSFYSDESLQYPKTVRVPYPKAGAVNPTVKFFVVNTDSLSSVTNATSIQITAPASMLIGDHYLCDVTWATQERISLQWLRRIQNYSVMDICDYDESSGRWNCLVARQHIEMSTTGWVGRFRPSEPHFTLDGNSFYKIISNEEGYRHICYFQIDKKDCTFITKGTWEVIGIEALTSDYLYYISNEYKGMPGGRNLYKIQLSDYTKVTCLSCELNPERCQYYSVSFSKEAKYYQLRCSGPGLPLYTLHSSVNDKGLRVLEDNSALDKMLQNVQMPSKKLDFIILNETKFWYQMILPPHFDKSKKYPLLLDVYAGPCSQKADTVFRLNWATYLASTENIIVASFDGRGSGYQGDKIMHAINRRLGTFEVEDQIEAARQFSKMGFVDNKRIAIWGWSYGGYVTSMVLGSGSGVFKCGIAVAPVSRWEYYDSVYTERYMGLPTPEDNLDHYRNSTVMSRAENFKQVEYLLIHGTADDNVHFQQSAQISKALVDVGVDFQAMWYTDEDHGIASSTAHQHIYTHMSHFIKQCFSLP

[5] = target: T2, Peroxisome proliferator-activated receptor gamma (Homo sapiens, UniProt P37231); assay: Agonist activity at PPARgamma in human HepG2 cells assessed as activation of PPRE incubated for 24 hrs by dual luciferase reporter gene assay; assay type: cell-based
T2 sequence (P37231 whole entry): T1 sequence (whole entry)

Rattus norvegicus [6] = species: Rattus norvegicus; assay: Inhibition of rat small intestine alpha-glucosidase at 3.74 umol/L using maltose/glucose as substrate incubated for 10 mins followed by substrate addition measured after 10 mins relative to control
[7] = target: T1, Peroxisome proliferator-activated receptor gamma (Homo sapiens); assay: Agonist activity at PPARgamma in human HepG2 cells assessed as activation of PPRE at 23.05 umol/L incubated for 24 hrs by dual luciferase reporter gene assay relative to control; assay type: cell-based

| SMILES | Activity [1] | Activity [2] | inhibition (Rattus norvegicus [3]) | inhibition [4] | pEC50 [5] | inhibition (Rattus norvegicus [6]) | Activity [7] |
| --- | --- | --- | --- | --- | --- | --- | --- |
| COC(=O)[C@@H](NC(=O)OCc1ccccc1)c1cccc(NC(C)=O)c1 | 24.9% | 21.6% |  |  |  |  |  |
| CNC(=O)[C@@H](NC(=O)OCc1ccccc1)c1cccc(NC(=O)CCl)c1 | -18.8% | -17.4% |  |  |  |  |  |
| COC(=O)[C@@H](NC(=O)OCc1ccccc1)c1cccc(NC(=O)Cn2cnc3ccccc32)c1 | 3.93% | 4.52% | 2.91% | -0.31% |  |  |  |
| COC(=O)[C@@H](NC(=O)OCc1ccccc1)c1cccc(NC(=O)CSc2nc3ccccc3[nH]2)c1 | 7.66% | -9.41% | 9.26% | 8.99% |  |  |  |
| CCOC(=O)[C@@H](NC(=O)OCc1ccccc1)c1cccc(NC(=O)CCl)c1 | -24.8% | -23.9% |  |  |  |  |  |
| CCCCOC(=O)[C@@H](NC(=O)OCc1ccccc1)c1cccc(NC(=O)CCl)c1 | -5.01% | -5.58% |  |  |  |  |  |
| O=C(CCl)Nc1cccc([C@H](NC(=O)OCc2ccccc2)C(=O)O)c1 | 53.5% | 52.8% and 49.1% | 17.7% |  |  |  |  |
| COC(=O)[C@@H](NC(=O)OCc1ccccc1)c1cccc(NC(=O)CCCCl)c1 | 11.6% | 11.8% |  |  |  |  |  |
| CCCC(=O)Nc1cccc([C@H](NC(=O)OCc2ccccc2)C(=O)OC)c1 | 12% | 11.2% |  |  |  |  |  |
| CCC(=O)Nc1cccc([C@H](NC(=O)OCc2ccccc2)C(=O)OC)c1 | 18.3% | 16.5% |  |  |  |  |  |
| COC(=O)[C@@H](NC(=O)OCc1ccccc1)c1cccc(NC(=O)CCl)c1 | 105 to 179% | 100% | 14.6% | 16.1% | 4.65 |  |  |
| CCNC(=O)[C@@H](NC(=O)OCc1ccccc1)c1cccc(NC(=O)CCl)c1 | -20.1% | -19.3% |  |  |  |  |  |
| COC(=O)[C@@H](NC(=O)OCc1ccccc1)c1cccc(NC(=O)Cn2nc(C)cc2C)c1 | 1.36% | 1.49% |  |  |  |  |  |
| CCCOC(=O)[C@@H](NC(=O)OCc1ccccc1)c1cccc(NC(=O)CCl)c1 | -17.1% | -17.1% |  |  |  |  |  |
| OCC(CO)N[C@H]1C[C@](O)(CO)[C@@H](O)[C@H](O)[C@H]1O |  |  |  |  |  | 104% |  |
| COC(=O)[C@@H](NC(=O)OCc1ccccc1)c1cccc(NC(=O)CN2C(=O)c3ccccc3C2=O)c1 | 11.9% | 14.6% | 17.5% | 2.17% |  |  |  |
| COC(=O)[C@@H](NC(=O)OCc1ccccc1)c1cccc(NC(=O)CNc2ccc(S(=O)(=O)Nc3cc(C)on3)cc2)c1 | 18.9% | 27.9% | 11.8% | 5.87% |  |  |  |
| O=C(CCl)Nc1cccc([C@H](NC(=O)OCc2ccccc2)C(=O)NO)c1 | -5.33% | -4.96% |  |  |  |  |  |
| COC(=O)[C@@H](NC(=O)OCc1ccccc1)c1cccc(NC(=O)Cn2nnnc2SC)c1 | 19.5% | 22.4% |  |  |  |  |  |
| COCC(=O)Nc1cccc([C@H](NC(=O)OCc2ccccc2)C(=O)OC)c1 | -17.1% | -16.1% |  |  |  |  |  |
| CC(C)(C)OC(=O)N1CCN(CC(=O)Nc2cccc([C@H](NC(=O)OCc3ccccc3)C(=O)O)c2)CC1 | 21.4% | 27.5% | 13.7% | 5.26% |  |  |  |
| COC(=O)[C@@H](NC(=O)OCc1ccccc1)c1cccc(NC(=O)CN2CCN(C(=O)OC(C)(C)C)CC2)c1 | -8.27% | -10.9% | 15.5% | -6.12% |  |  |  |
| COC(=O)[C@@H](NC(=O)OCc1ccccc1)c1cccc(NC(=O)Cn2nnnc2C)c1 | 14.4% | 15.4% |  |  |  |  |  |
| COC(=O)[C@@H](NC(=O)OCc1ccccc1)c1cccc(NC(=O)CCCl)c1 | -3.55% | -3.5% |  |  |  |  |  |
| CN(CCO)C(=O)[C@@H](NC(=O)OCc1ccccc1)c1cccc(NC(=O)CCl)c1 | 120% | 124% |  |  | 5.05 |  | 208% |
| O=C(CSc1nc2ccccc2[nH]1)Nc1cccc([C@H](NC(=O)OCc2ccccc2)C(=O)O)c1 | 32.9% | 39.4% | 12.6% | -7.54% |  |  |  |
| O=C(CN1C(=O)c2ccccc2C1=O)Nc1cccc([C@H](NC(=O)OCc2ccccc2)C(=O)O)c1 | 39.9% | 47.4% | 17.8% |  |  |  |  |
| Cc1cc(NS(=O)(=O)c2ccc(NCC(=O)Nc3cccc([C@H](NC(=O)OCc4ccccc4)C(=O)O)c3)cc2)no1 | 40.6% | 58.8% | 8.89% | 11.1% |  |  |  |
| COC(=O)[C@@H](NC(=O)OCc1ccccc1)c1cccc(NC(=O)Cn2cnnn2)c1 | 14.4% | 14.9% |  |  |  |  |  |
| O=C(Cn1cnc2ccccc21)Nc1cccc([C@H](NC(=O)OCc2ccccc2)C(=O)O)c1 | 3.85% | 4.3% | 0.99% | -0.74% |  |  |  |
